Assay results: ChEMBL document CHEMBL4811238, “Identification of N-phenyl-2-(phenylsulfonyl)acetamides/propanamides as new SLC-0111 analogues: Synthesis and evaluation of the carbonic anhydrase inhibitory activities” (Eur J Med Chem, 2021)
Active and inactive are the calls of the source. The rule behind the calls is not given here.

Columns and labels:
[1] = target: Carbonic anhydrase 9 (Homo sapiens, UniProt Q16790)
Description: Inhibition of recombinant human CA9 pre-incubated for 15 mins measured by phenol red dye based stopped flow CO2 hydration assay

[2] = target: Carbonic anhydrase 2 (Homo sapiens, UniProt P00918)
Description: Inhibition of recombinant human CA2 pre-incubated for 15 mins measured by phenol red dye based stopped flow CO2 hydration assay

[3] = target: Carbonic anhydrase 12 (Homo sapiens, UniProt O43570); assay: Inhibition of recombinant human CA12 pre-incubated for 15 mins measured by phenol red dye based stopped flow CO2 hydration assay
Carbonic anhydrase 12, sequence (O43570 whole entry): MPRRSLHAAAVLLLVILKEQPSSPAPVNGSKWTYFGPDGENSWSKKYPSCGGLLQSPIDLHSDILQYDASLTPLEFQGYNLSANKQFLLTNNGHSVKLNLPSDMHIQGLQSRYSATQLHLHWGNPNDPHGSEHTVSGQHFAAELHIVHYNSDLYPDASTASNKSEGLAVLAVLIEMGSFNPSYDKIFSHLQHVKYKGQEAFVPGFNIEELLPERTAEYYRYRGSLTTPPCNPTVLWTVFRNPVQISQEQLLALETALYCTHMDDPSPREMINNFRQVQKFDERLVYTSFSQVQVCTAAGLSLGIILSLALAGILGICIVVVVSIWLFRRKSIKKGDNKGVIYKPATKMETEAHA

[4] = target: Carbonic anhydrase 1 (Homo sapiens, UniProt P00915); assay: Inhibition of recombinant human CA1 pre-incubated for 15 mins measured by phenol red dye based stopped flow CO2 hydration assay
Carbonic anhydrase 1, sequence (P00915 whole entry): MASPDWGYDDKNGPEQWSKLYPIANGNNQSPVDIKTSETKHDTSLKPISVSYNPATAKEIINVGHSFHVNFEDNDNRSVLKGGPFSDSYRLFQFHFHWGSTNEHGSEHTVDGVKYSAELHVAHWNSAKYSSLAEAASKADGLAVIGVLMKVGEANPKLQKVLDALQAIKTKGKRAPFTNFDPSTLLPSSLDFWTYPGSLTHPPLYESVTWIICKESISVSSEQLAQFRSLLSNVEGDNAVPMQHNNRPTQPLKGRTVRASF

[5] = test system: MCF7; assay: Antiproliferative activity against human MCF7 cells after 48 hrs under hypoxic condition by MTT assay; format: functional, cell-based; conditions: MCF7, 48 h
[6] = test system: HCT-116; assay: Antiproliferative activity against human HCT-116 cells after 48 hrs under hypoxic condition by MTT assay; format: functional, cell-based; conditions: HCT-116, 48 h
[7] = test system: HCT-116; assay: Induction of apoptosis in human HCT116 cells assessed as necrotic cells after 24 hrs by Annexin-V-FITC/PI-staining based flow cytometry (reference value: 1.01%); format: functional
[8] = test system: HCT-116; assay: Induction of apoptosis in human HCT116 cells assessed as early apoptotic cells after 24 hrs by Annexin-V-FITC/PI-staining based flow cytometry (reference value: 0.59%); format: functional
[9] = test system: HCT-116; assay: Induction of cell cycle arrest in human HCT116 cells assessed as cell accumulation at S phase at IC50 concentration after 24 hrs by propidium iodide staining based flow cytometry analysis; format: functional
[10] = test system: HCT-116; assay: Induction of apoptosis in human HCT116 cells assessed as late apoptotic cells after 24 hrs by Annexin-V-FITC/PI-staining based flow cytometry (reference value: 0.22%); format: functional
[11] = test system: HCT-116; assay: Induction of cell cycle arrest in human HCT116 cells assessed as cell accumulation at sub-G1 phase at IC50 concentration after 24 hrs by propidium iodide staining based flow cytometry analysis; format: functional

| SMILES | Ki [1] | Ki [4] | also measured |
| --- | --- | --- | --- |
| NS(=O)(=O)c1ccc(NC(=O)CS(=O)(=O)c2ccccc2)cc1 | 0.0227 µM |  |  |
| Cc1ccc(S(=O)(=O)CC(=O)Nc2ccc([N+](=O)[O-])cc2)cc1 | > 100 µM | > 100 µM | Ki [2]: > 100 µM; Ki [3]: > 100 µM |
| CC(=O)c1ccc(NC(=O)CS(=O)(=O)c2ccc(C)cc2)cc1 | > 100 µM | > 100 µM | Ki [2]: > 100 µM; Ki [3]: > 100 µM |
| Cc1ccc(S(=O)(=O)CC(=O)Nc2ccc(S(N)(=O)=O)cc2)cc1 | 0.0159 µM |  |  |
| O=C(CS(=O)(=O)c1ccccc1)Nc1ccc(C(=O)O)cc1 | 0.93 µM | > 100 µM | IC50 [5]: 5.29 µM; IC50 [6]: 11.6 µM |
| NS(=O)(=O)c1ccc(NC(=O)CCS(=O)(=O)c2ccccc2)cc1 | 0.0461 µM |  |  |
| CCOC(=O)c1ccc(NC(=O)CS(=O)(=O)c2ccccc2)cc1 | 17.2 µM | > 100 µM | Ki [2]: > 100 µM |
| CCOC(=O)c1ccc(NC(=O)CS(=O)(=O)c2ccc(C)cc2)cc1 | 29.5 µM | > 100 µM | Ki [3]: > 100 µM |
| Cc1ccc(S(=O)(=O)CC(=O)Nc2ccc(C(=O)O)cc2)cc1 | 0.72 µM |  | IC50 [5]: 3.41 µM; IC50 [6]: 2.23 µM |
| Cc1ccc(S(=O)(=O)C(C)C(=O)Nc2ccc(S(N)(=O)=O)cc2)cc1 (centres undefined) | 0.0298 µM |  |  |
| Cc1ccc(S(=O)(=O)CCC(=O)Nc2ccc(S(N)(=O)=O)cc2)cc1 | 0.0043 µM |  | Activity [7]: 9.63%; Activity [8]: 0.91%; Activity [9]: Active; Activity [10]: 21.45%; Activity [11]: Active; IC50 [5]: 0.67 µM; IC50 [6]: 0.57 µM |
| CC(C(=O)Nc1ccc(S(N)(=O)=O)cc1)S(=O)(=O)c1ccccc1 (centres undefined) | 0.0065 µM |  |  |
